{
  "source": "patent US9255118B2",
  "about": "“Light induced drug release” (UNIVERSITEIT LEIDEN, priority 2010, dated 2016)",
  "key": {"[1]": {"test": "Complex stability at human body temperature in the dark (1H NMR in D2O, 37° C.)", "type": "physicochemical", "conditions": "for Conversion of Ru compounds into their aqua complexes: +37° C.", "method": "D2O (0.80 mL) was added to each of the NMR tubes and ^1H NMR spectra were taken. The NMR tubes were put into closed pressure tubes and kept in the dark at 37° C. to check the stability of the Ru—Cl and Ru—S bond. ^1H NMR spectra of each of the tubes were taken after 4 hours, 1 day, 3 days and 3 weeks. The NMR tubes were kept in an ice bath during transport in order to temporarily freeze the reaction. In the case of [Ru(terpy)(bpy)(Cl)](Cl), an equilibrium had been reached after four hours, characterized by 10% of [Ru(terpy)(bpy)(Cl)](Cl) and 90% of [Ru(terpy)(bpy)(H2O)](Cl)2.\nThe stability of the Ru—S bond was measured at human body temperature and in the dark. To do so, compound [Ru(tpy)(apy)Cl]Cl, and [Ru(tpy)(apy)(AMet)]Cl2, (compound [13](Cl)2) were dissolved in D2O and kept in the dark at 37° C. The release of the aqua species was measured by ^1H NMR after 4 hours, 1 days, and 3 weeks. […] The stability of the Ru—S bond depends on the nature of the polypyridyl ligands (see Example 2), but in general it is much higher than that of the Ru—Cl bond."}, "[2]": {"conditions": "background statement; cited from earlier work"}, "[3]": {"test": "Light-induced cleavage of the Ru-S bond in aqueous solution", "type": "physicochemical"}, "HepG2 cancer cells": {"tested_on": "HepG2 cancer cells", "test": "WST-1 cell viability test in the dark", "type": "cell-based", "conditions": "1.7 mM, 30 min in the dark, WST-1 normalized to protein content", "method": "HepG2 cancer cells were grown in RPMI 1640 medium containing (−) L-glutamine at 37° C. and in an atmosphere of […] and 5% CO2. […] In this experiment, the difference in water solubility between the chlorido and thioether complexes might also play a role, as uptake might be different for both compounds."}, "[4]": {"conditions": "37° C., equilibrium after four hours"}},
  "data": [
    {"molecule": "[Ru(terpy)(apy)(Cl)](Cl) [[Ru(tpy)(apy)(Cl)](Cl)]", "values": [
      {"measurement": "Conversion of Ru compounds into their aqua complexes", "setting": "[1]; 3 weeks", "result": 48, "unit": "%"},
      {"measurement": "Conversion of Ru compounds into their aqua complexes", "setting": "[1]; 4 h", "result": 48, "unit": "%"},
      {"measurement": "Conversion of Ru compounds into their aqua complexes", "setting": "[1]; 1 day", "result": 48, "unit": "%"}
    ]},
    {"molecule": "[Cl-].[Cl-].[Ru+2].c1ccc(N=Nc2ccccn2)cc1.c1ccc(N=Nc2ccccn2)cc1", "note": "[α-[Ru(azpy)2(Cl)2]]", "values": [
      {"measurement": "solubility in water", "setting": "[2]", "result": "poorly soluble in water"}
    ]},
    {"molecule": "[Cl-].[Cl-].[Cl-].[Ru+3].c1ccc(-c2cccc(-c3ccccn3)n2)nc1", "note": "[mer-[Ru(terpy)(Cl)3]]", "values": [
      {"measurement": "solubility in water", "setting": "[2]", "result": "poorly soluble in water"}
    ]},
    {"molecule": "[Ru(terpy)(bpy)(mte)](BF4)2 [Compound [9](BF4)2]", "values": [
      {"measurement": "photosubstitution of the monodentate sulfur ligand", "setting": "[3]; white light, aqueous solution", "result": "photosubstituted by an aqua ligand"}
    ]},
    {"molecule": "[Ru(terpy)(bpy)(Cl)](Cl)", "values": [
      {"measurement": "aqua complex [Ru(terpy)(bpy)(H2O)](Cl)2 at equilibrium", "setting": "[1]; [4]", "result": 90, "unit": "%"},
      {"measurement": "starting chlorido complex at equilibrium", "setting": "[1]; [4]", "result": 10, "unit": "%"},
      {"measurement": "cell survival reduced by", "setting": "HepG2 cancer cells", "result": 49, "unit": "%"}
    ]},
    {"molecule": "[Ru(tpy)(apy)(AMet)]Cl2 [Compound [13](Cl)2]", "values": [
      {"measurement": "Conversion of Ru compounds into their aqua complexes", "setting": "[1]; 3 weeks", "result": 46, "unit": "%"},
      {"measurement": "Conversion of Ru compounds into their aqua complexes", "setting": "[1]; 4 h", "result": "no sign of cleavage"},
      {"measurement": "Conversion of Ru compounds into their aqua complexes", "setting": "[1]; 4 h, listed as [Ru(tpy)(apy)(AMet)](Cl)2", "result": 0, "unit": "%"},
      {"measurement": "Conversion of Ru compounds into their aqua complexes", "setting": "[1]; 1 day", "result": 21, "unit": "%"},
      {"measurement": "photochemical cleavage of the Ru-S bond", "setting": "[3]; visible light, D2O, 1H NMR and thin layer chromatography", "result": "photochemically labile"}
    ]},
    {"molecule": "[Ru(terpy)(bpy)(D-biotin)](Cl)2 [Compound [7](Cl)2]", "values": [
      {"measurement": "cell survival reduced by", "setting": "HepG2 cancer cells", "result": "not reduced"}
    ]}
  ]
}
